Values joined by “and” are separate entries in the source; they are usually repeats but may differ in a detail not shown here. Equal entries are not always repeated. After the bases stand the sugars from the 5' end (letter, count) and the backbone: PS all phosphorothioate, else s phosphorothioate and o phosphodiester by linkage. Methylation of C is not given here. e = 2'-O-(2-methoxyethyl) (MOE); d = 2'-deoxy (DNA)

For this data set, the target named is DGAT2. Conditions: ASO.

For “TCTGATCAATTATTAACCTA (sugars e5 d10 e5, PS)”, the target mRNA inhibition by setting is: (HepG2, 2.5 µM) 20%; (HepG2, 10 µM) 55%.

For “TCTTCTGGACCCATCGGCCC (sugars e5 d10 e5, PS)”, the target mRNA inhibition (HepG2, 0.12 µM) came out at 37%.

The sequence “TCTTGTGCTTGTCGAAGAGC (sugars e5 d10 e5, PS)” displayed a target mRNA inhibition (HepG2, 0.12 µM) of 62%.

“TCTTTTAAATAACCCACAGA (sugars e5 d10 e5, PS)”: where the note is “HepG2, 0.12 µM”, the target mRNA inhibition came to 10%.

With “TGAGGCCCTTCAGCTTGTGC (sugars e5 d10 e5, PS)”, the target mRNA inhibition (HepG2, 0.12 µM) was found to be 49%.

For “TGAGGTTTAGGCTATGGTCT (sugars e5 d10 e5, PS)”, the target mRNA inhibition runs as follows: (HepG2, 2.5 µM) 66%; (HepG2, 10 µM) 77%.

With “TGATAGCATTGCCACTCCCA (sugars e2 d13 e5, PS)”, the target mRNA inhibition (HepG2, 0.12 µM) was found to be 69%.

“TGCAGCCTACAAGAGCCTGT (sugars e5 d10 e5, PS)”: the target mRNA inhibition runs as follows: (HepG2, 2.5 µM) 54%; (HepG2, 10 µM) 90%.

Turning to “TGCAGCCTGGACAAGTCCTG (sugars e3 d14 e3, PS)”, the target mRNA inhibition by setting is: (HepG2, 0.12 µM) 77%; (HepG2, 2.5 µM) 27%; (HepG2, 10 µM) 51%; (HepG2, 20 µM) 68%.

For “TGCAGCTAATGATACAAGGT (sugars e5 d10 e5, PS)”, the target mRNA inhibition reads like this: (HepG2, 2.5 µM) 67%; (HepG2, 10 µM) 89%.

In the case of “TGCAGGCCCAGCACCAAGGA (sugars e5 d10 e5, PS)”, the target mRNA inhibition runs as follows: (HepG2, 2.5 µM) 19%; (HepG2, 10 µM) 39%.

On to “TGCCACAGGGCCCTTTCCAG (sugars e5 d10 e5, PS)”, for which the target mRNA inhibition stood at 11% (HepG2, 2.5 µM) and 67% (HepG2, 10 µM).

In the case of “TGCCATTTAATGAGCTTCAC (sugars e5 d10 e5, PS)”, the target mRNA inhibition reads like this: (HepG2, 2.5 µM) 79% and 81%; (HepG2, 10 µM) 91% and 92%.

On to “TGGAGCTCAGAGACTCAGCC (sugars e2 d13 e5, PS)”, for which the target mRNA inhibition (HepG2, 0.12 µM) is 82%.

Take “TGGAGCTCAGAGACTCAGCC (sugars e3 d14 e3, PS)”: the target mRNA inhibition (HepG2, 0.12 µM) came to 76%.

As for “TGGCCTGGATGGCAACCTAA (sugars e5 d10 e5, PS)”, the target mRNA inhibition came to 46% (HepG2, 2.5 µM) and 83% (HepG2, 10 µM).

For “TGGCTCTCTAGATAGGGTGG (sugars e5 d10 e5, PS)”, the target mRNA inhibition is 84% and 85% (HepG2, 2.5 µM); 89% and 87% (HepG2, 10 µM).

“TGGGAACTATCACACCACCT (sugars e5 d10 e5, PS)”: the target mRNA inhibition reads like this: (HepG2, 2.5 µM) 53% and 65%; (HepG2, 10 µM) 90% and 94%.

Sequence “TGGTGGTCAGCAGGTTGTGT (sugars e5 d10 e5, PS)” displayed a target mRNA inhibition (HepG2, 0.12 µM) of 51%.

On to “TGTGACCTTGGGATAGTCCC (sugars e5 d10 e5, PS)”, for which the target mRNA inhibition came to 63% (HepG2, 2.5 µM) and 87% (HepG2, 10 µM).

As for “TGTTGCCATCATACTAGACT (sugars e5 d10 e5, PS)”, the target mRNA inhibition by setting is: (HepG2, 2.5 µM) 64%; (HepG2, 10 µM) 75%.

“TTAAAAAAGACCTAACATTG (sugars e5 d10 e5, PS)” came in with a target mRNA inhibition (HepG2, 0.12 µM) of 0%.

“TTAAGGGTTCATGGATCCCC (sugars e5 d10 e5, PS)”: the target mRNA inhibition (HepG2, 2.5 µM) is 63% and 75% and 79%; the target mRNA inhibition (HepG2, 10 µM) was 91% and 93%.

The sequence “TTATAATTTCTTTTAAATAA (sugars e5 d10 e5, PS)” showed a target mRNA inhibition (HepG2, 0.12 µM) of 0%.

For “TTCTGGACCCATCGGCCCCA (sugars e5 d10 e5, PS)”, the target mRNA inhibition (HepG2, 0.12 µM) stood at 27%.

As for “TTGCCAGGCATGGAGCTCAG (sugars e5 d10 e5, PS)”, the target mRNA inhibition (HepG2, 0.12 µM) was determined as 37%.

Turning to “TTGCTCAGTTCTTCCAACCA (sugars e5 d10 e5, PS)”, the target mRNA inhibition is 81% and 72% (HepG2, 2.5 µM); 93% and 94% (HepG2, 10 µM).

As for “TTGGATAGTCGATTTACCAG (sugars e5 d10 e5, PS)”, the target mRNA inhibition is, setting by setting: (HepG2, 2.5 µM) 62%; (HepG2, 10 µM) 92%.

Sequence “TTTAAATAACCCACAGACAC (sugars e5 d10 e5, PS)” registered a target mRNA inhibition (HepG2, 0.12 µM) of 14%.

In the case of “TTTAGGCTATGGTCTGAGCA (sugars e5 d10 e5, PS)”, the target mRNA inhibition (HepG2, 2.5 µM) is 68% and 55%; the target mRNA inhibition (HepG2, 10 µM) was 85% and 78%.

As to “TTTCTAGGGAAGCATGTGCA (sugars e5 d10 e5, PS)”, the target mRNA inhibition by setting is: (HepG2, 2.5 µM) 67% and 68%; (HepG2, 10 µM) 90% and 88%.

As to “TTTCTTATCTTCAATCCTCA (sugars e5 d10 e5, PS)”, the target mRNA inhibition is, setting by setting: (HepG2, 2.5 µM) 56%; (HepG2, 10 µM) 90%.

The sequence “TTTCTTTTAAATAACCCACA (sugars e5 d10 e5, PS)” registered a target mRNA inhibition (HepG2, 0.12 µM) of 1%.

Take “TTTGAAATCCAATGCACCTT (sugars e5 d10 e5, PS)”: the target mRNA inhibition runs as follows: (HepG2, 2.5 µM) 63%; (HepG2, 10 µM) 96%.

Sequence “TTTTAAATAACCCACAGACA (sugars e5 d10 e5, PS)” came in with a target mRNA inhibition (HepG2, 0.12 µM) of 10%; a target mRNA inhibition (HepG2, 2.5 µM) of 92%; a target mRNA inhibition (HepG2, 10 µM) of 60%; a target mRNA inhibition (HepG2, 20 µM) of 81%.

For the origin of these results see the OligoGym collection.
